A word on the melting point: it is the temperature, or range, at which the solid turns liquid.

Regarding `CC1(C)Nc2ncc(-c3ccc(C(=O)N4CCC[C@H]4CN4CCCC4)cc3)cc2N(Cc2cc(F)ccc2F)C1=O`, the melting point fell in the range of 171 to 172 °C.
As for `O=C(OCCCc1ccccc1)c1ccc2c(c1)C(Cl)(Cl)c1cc(C(=O)OCCCc3ccccc3)ccc1-2`, the figure is 91 to 92 °C; as for `O=C(O)CCSSc1ccc([N+](=O)[O-])cc1`, 98 to 100 °C.
In turn, `Cc1cccc(C(=O)P2(=O)Oc3ccccc3-c3ccccc32)c1` (configuration not stated) gave a melting point of 108 to 111 °C.
For the molecule `CCn1cc(C(=O)O)c(=O)c2cc(F)c(N)nc21`, the melting point fell in the range of 299 to 303 °C.
As for `CC(=O)OCc1nc([N+](=O)[O-])c(C#N)n1C`, the figure is 92 to 93 °C; as for `Cc1oc(-c2ccccc2)nc1CCC(N)=O`, 149 to 150 °C.
To `CCC(=O)C1=C(O)CC(c2cccc(O)c2)CC1=O` (configuration not stated) belongs 124 to 131 °C; to `N#Cc1ccc([C@H]2[C@@H]3C(=O)N(Cc4ccc5c(c4)OCO5)C(=O)[C@@H]3[C@@H]3CSCN32)cc1` (racemic), 142 to 143 °C.
`CN(C)n1cnnc1NN=Cc1c(Cl)cccc1Cl` came in with a melting point of 189 °C.
With `O=[N+]([O-])c1ccc(NCC23CCCN2CCC3)c2ccccc12`, the melting point lay within 143 to 144 °C.
As for `CCCCc1oc2ccccc2c1C(=O)NCc1ccc2cc(OCC#N)ccc2c1`, the figure is 142 to 143 °C; as for `CCOC(=O)Cc1nc(-c2ccccc2)oc1-c1ccoc1`, 84 to 85 °C.
With `CC(C)(C)c1cc(C(=O)O)c(Cl)c(C(=O)O)c1`, the melting point is 250 °C.
To `O=C(NCCCN1CC=C(c2ccc(Cl)cc2)CC1)C(F)(F)F` belongs 105 to 107 °C.
To `COC(=O)c1ccc(Cn2cc(/C=C/C(=O)N3CCCC3)c3ccc(/C=C/C(=O)N4CCCC4)cc32)c(OC)c1` belongs 226 to 228 °C; to `CCN(CC)CCCC1CCCN(C(=O)N2c3ccccc3NC(=O)c3csc(C)c32)C1` (configuration not stated), 136 to 138 °C.
As to `Nc1sc2c(c1C(=O)c1ccc(Cl)s1)CCN(Cc1ccccc1)C2`, the melting point lay in the range of 81 to 83 °C.
As for `COC(=O)c1ccc(N2C(=O)CCC2(CO)CO)c(N)c1`, the figure is 192 to 194 °C.
`CCNC(=O)[C@@H]1CCCN1C(=O)[C@H](C)NC(=O)C12CC3CC(CC(C3)C1)C2` came in with a melting point of 116 to 118 °C.
To `Nc1ccccc1NS(=O)(=O)c1cc(C(=O)O)cc(NCc2ccccc2)c1Oc1ccccc1` belongs 113 to 116 °C.
To `COc1ccc(Br)c(Cl)c1C(=O)O` belongs 186 to 188 °C; to `COCCOCOc1ccc2cc(C(=O)N(C)Cc3cccc(-c4ccc(Nc5cccc(C(=O)O)c5)cc4)c3)ccc2c1`, 60 °C; to `CCCCN(CCCC)c1ccc(C=Cc2ccc(C=CC3=C(C#N)C(=C(C#N)C#N)OC3(C)C(F)(F)F)s2)c(OCc2ccccc2)c1` (configuration not stated), 184 to 185 °C.
As to `O=C(O)c1ccc(I)cc1F`, the melting point lay within 158 to 159 °C.
Turning to `CCOC(CCn1c(-c2ccc(F)cc2)c(-c2ccccc2)c(C(=O)Nc2ccccc2)c1C(C)C)OCC`, the melting point lay in the range of 125 to 128 °C.
`CCCCn1cncc1C(O)(c1ccc(Cl)cc1)c1ccc2c(c1)c(-c1cccc(Cl)c1)cc(=O)n2C` (configuration not stated) came in with a melting point of 175 °C.
Molecule `CCCCSc1ccc(C(O)CNC2CCCCC2)cc1C` (configuration not stated) displayed a melting point of 136 °C.
As for `N#CCc1cc(Cl)cc(Cl)c1`, the figure is 31 to 32 °C.
`OCc1cc2c(F)cccc2nc1Cl` returned a melting point of 176 °C.
With `NC(=O)CN1CCC1=O`, the melting point is 112 to 113 °C.
As for `COc1ccc(NC(=O)C(C)(C)CCCOc2cc(C)ccc2C)cc1OC`, the figure is 110 to 111 °C.
`COC(=O)C1CC2c3cccc4[nH]cc(c34)CC2N(C(=O)C2CC2)C1` (configuration not stated) displayed a melting point of 276 to 278 °C.
`O=c1[nH]nc(-c2ccccc2O)o1` displayed a melting point of 198 to 200 °C.
To `CNS(=O)(=O)c1ccc(Nc2cc(N3CCCCC3)cc(-c3ccc(F)cc3)n2)cc1` belongs 191 to 192 °C.
As for `CSc1ccc(C=C2C(C)=C(CC(=O)O)c3cc(F)ccc32)cc1`, the figure is 187 to 188 °C; as for `CCC(=O)N1Cc2cn[nH]c2-c2cc(N)ccc21`, 218 to 220 °C; as for `CCOC(=O)Nc1nc(-c2ccccc2)c(-c2nc3ccccc3c(=O)n2-c2cccc(Cl)c2)s1`, 235 to 236 °C.
For the molecule `N#Cc1ccc(-c2cc(C(=O)O)c(=O)n(Cc3ccccc3)n2)cc1`, the melting point was 254 to 256 °C.
Take `O=C(/C=C/c1c[nH]c2ccccc12)c1ccccc1`: the melting point lay within 167 to 170 °C.
As for `Cc1cc2cccc(Br)c2nc1C`, the figure is 78 °C.
`COc1ccc(CNc2nc(CCCCCCC(=O)O)nc3sc(Cl)cc23)cc1Cl`: the melting point came to 137 °C.
To `CCCCC(NC(=O)C1CC1(C)C)C(=O)OC(C)(C)C` (racemic) belongs 52 to 65 °C.
To `C#CCN(Cc1cc2c(=O)n(CCN(C)C)c(CN3CCCCC3)nc2cc1Cl)c1ccc(C(=O)NCc2cccnc2)cc1` belongs 90 to 93 °C; to `COc1ccc(C2=NO[C@]3(CCOC3)C2)cc1OC1CCCC1`, 110 °C; to `COc1ccc(S(N)(=O)=O)cc1C(O)CCl` (configuration not stated), 112 °C.
Molecule `O=C(N[C@@H](CSC(=O)c1ccccc1)C(=O)N[C@@H](Cc1c[nH]c2ccccc12)C(=O)O)c1ccccc1` registered a melting point of 175 to 178 °C.
As for `COc1cc(CN2CCN(C(=O)c3cc4ccccc4oc3=O)CC2)cc(OC)c1OC`, the figure is 171 to 173 °C; as for `CC(C)N1CCC(N2CCN(CCN3CCCCC3)C2=C(C#N)C#N)CC1`, 93 to 95 °C.
Turning to `Cc1ccc(O)c(-c2ccc(Br)cc2)n1`, the melting point fell in the range of 196 to 199 °C.
The molecule `Cn1c(C=O)cc2ccccc21` returned a melting point of 83 °C.
For the molecule `CC(=O)OC1CSC(Oc2cncc(-c3ccnc(F)c3)c2)C(OC(C)=O)C1OC(C)=O` (configuration not stated), the melting point fell in the range of 122 to 125 °C.
With `CCCCCCCCCCCCCCOc1ccc(CBr)cc1CBr`, the melting point came to 62.9 °C.
For the molecule `Cc1cc(-c2cccc(C(=O)CC(=O)Nc3cc(-c4ccc(F)cc4)ccc3NC(=O)OC(C)(C)C)c2)on1`, the melting point is 100 to 101 °C.
The molecule `CCCC(CCC)C(=O)OC1N=C(c2ccccc2F)c2cc(Cl)ccc2NC1=O` (configuration not stated) returned a melting point of 147 to 149 °C.
Molecule `CC(C)Oc1ccc(C=C2CCn3c2nc2cc(NC(=O)C(=O)O)ccc2c3=O)cc1` gave a melting point of 225 to 229 °C.
In turn, `N=C(NS(=O)(=O)C=Cc1ccccc1)c1ccccc1` registered a melting point of 192 to 194 °C.
To `CCN(CC)C1=NN(Nc2ccc3nc(C)cc(N)c3c2)NC(Cl)=C1` belongs 120 °C; to `N#Cc1cc(C#N)cc(Oc2nccc(Oc3cc(Cl)cc(Cl)c3)n2)c1`, 156 °C; to `Cc1ccc(S(=O)(=O)N(C)c2ccc(Cl)cc2C(N)=O)cc1`, 176 to 178 °C.
To `CC1=C(C(O)(c2ccc(C)cc2)C2SCSCS2)CN(C)O1` (configuration not stated) belongs 150 to 152 °C; to `FC(F)(F)c1ccc(-c2ccc(CCl)cn2)cc1`, 73 °C; to `Cc1cc(C)nc(NC(N)=S)n1`, above 260 °C.
Molecule `Cc1nc(C)c(Cl)c(NCc2nccc(N(C)CCN3CCc4ccccc4C3)c2Cl)n1` returned a melting point of 81 to 93 °C.
As for `CCN(CC)CC(O)CNC(=O)c1c(OC)c2cc(C)ccc2n1-c1ccccc1` (configuration not stated), the melting point fell in the range of 126 to 128 °C.
To `CC1(C)OC(=O)Nc2ccc(-c3cccc(CC#N)n3)cc21` belongs 210 to 212 °C; to `O=C1C2=C(NC(=O)C3(N2)OCCO3)c2ccccc21`, 296 to 301 °C; to `O=C1CC2Cc3ccccc3C2N1` (configuration not stated), 150 to 153 °C.
As for `COc1cc(COc2nn(-c3ccccc3)cc2C=O)ccc1OCc1nc(-c2cccc(O)c2)oc1C`, the figure is 193 to 194 °C; as for `C[C@@H](CN1CCc2ccc3c(c21)CCS3)NC(=O)OC(C)(C)C`, 170 to 172 °C.
As for `COc1ccc(NC(=O)CCCCCC(C)=O)cc1`, the figure is 106 to 107 °C; as for `COC(=O)c1cc(Cl)c2c(c1Cl)OC(c1ccccc1)(c1ccccc1)O2`, 69 to 70 °C; as for `Cc1cc2c(cc1Br)-c1cc(C)c(Br)c(C)c1OP2(=O)O`, 240 °C.
For the molecule `COc1c(C(C)(C)C)cc(P(c2cc(C(C)(C)C)c(OC)c(C(C)(C)C)c2)c2ccccc2Br)cc1C(C)(C)C`, the melting point lay in the range of 142 to 143 °C.
To `Cn1c(C(F)(F)F)cc(=O)n(-c2ccc3snc(C(Br)C#N)c3c2)c1=O` (configuration not stated) belongs 185 to 187 °C; to `CC(C)(C)C(=O)COc1nn(CC#N)c(-c2ccc(S(C)(=O)=O)cc2)c1-c1ccc(F)cc1`, 156 to 159 °C.
`CCCCCCCN1CCN(C(=O)C2CCC(c3cccnc3)N2)CC1` (configuration not stated): the melting point fell in the range of 138 to 143 °C.
To `CC(C)NOC(=O)c1n[nH]c2c(=O)[nH]c3cc(Cl)ccc3c(=O)c12` belongs 224 °C.
The molecule `Cc1cc(C(=O)Nc2ccc(OCC(C)(C)C)c(C#N)c2)n(-c2ccc(F)cc2)n1` gave a melting point of 165 °C.
`COc1ccc(S(=O)(=O)Nc2c(Cl)ncnc2Nc2ccccc2)cc1`: the melting point was 174 to 175 °C.
To `O=C1c2ccccc2C(=O)c2oc(-c3cccs3)nc21` belongs above 260 °C; to `O=C(CCCl)Nc1cccc2c1C(=O)c1c(NC(=O)CCCl)cccc1C2=O`, 248 to 249 °C.
For the molecule `COc1ccc2c(n1)c(CCNC(C)=O)c1n2CCCc2ccccc2-1`, the melting point lay in the range of 73 to 74 °C.
As for `CC(=O)NCCCn1cc(-c2cc3nccnc3[nH]2)c2ccccc21`, the figure is 260 °C.
Molecule `N#Cc1c(N2CCc3ccccc3CC2)nc(NCCOc2ccccc2)[nH]c1=O` had a melting point above 200 °C.
As for `CCOC(=O)COc1ccc(SCc2ccc3sc(-c4ccc(C(F)(F)F)cc4)nc3c2)cc1C`, the figure is 138 to 140 °C; as for `O=C(O)c1ccc(C(c2ccccc2)c2ccc(Cl)cc2)cn1` (configuration not stated), 200 to 203 °C.

For the origin of these results see a melting point compilation (Tetko et al.; mined from patent text by program, amines drawn as free bases though some values may be those of a salt).
